Laboratory results from patent US9555014B2, “Therapeutic regimens” (Radius Health, Inc., priority 2010, dated 2017).
Counter-ions that a name gives are not always drawn.

Test system: postmenopausal women with frequent, moderate to severe vasomotor symptoms (hot flashes)
Experiment: Phase 2a study: hot flash frequency, severity and composite score
Type: in vivo, human (postmenopausal women)
Settings: for Weekly Mean Frequency of Moderate and Severe Hot Flash Numbers / Mean Severity Scores by Week / Weekly Mean Frequency of Mild, Moderate and Severe Hot Flash Numbers: mean (SD); for Composite Scores by Week: mean
Source text: A phase 2a study was undertaken to assess the effect of (R)-6-(2-(ethyl(4-(2-(ethylamino)ethyl)benzyl)amino)-4-methoxyphenyl)-5,6,7,8-tetrahydronaphthalen-2-ol dihydrochloride (referred to as “drug” in tables below) to alleviate hot flashes in postmenopausal women. The study design and objectives are detailed below.
This is a randomized, placebo-controlled, double-blind, parallel-group, Phase 2, multi-center, dose-finding study to evaluate the effects of (R)-6-(2-(ethyl(4-(2-(ethylamino)ethyl)benzyl)amino)-4-methoxyphenyl)-5,6,7,8-tetrahydronaphthalen-2-ol dihydrochloride in the treatment of vasomotor symptoms in postmenopausal women.
A total of 100 eligible patients will be randomized to receive one of 5 blinded treatment regimens. (R)-6-(2-(ethyl(4-(2-(ethylamino)ethyl)benzyl)amino)-4-methoxyphenyl)-5,6,7,8-tetrahydronaphthalen-2-ol dihydrochloride at doses 0, 10, 25, 50 or 100 mg will be dosed for 28-days.
Patients will document in real time hot flash frequency and severity according to a predetermined scale, in the provided electronic or paper Study Diary. Study Diary entries of hot flash frequency and severity and associated symptoms will be reviewed at each study visit. Serum markers of estrogen effect will be measured at specific study visits while on treatment.
The efficacy endpoints assessed are: • Change in frequency of hot flashes over time • Change in severity of hot flashes over time; • Change in composite score of hot flashes over time (frequency×severity)
(R)-6-(2-(ethyl(4-(2-(ethylamino)ethyl)benzyl)amino)-4-methoxyphenyl)-5,6,7,8-tetrahydronaphthalen-2-ol dihydrochloride was provided by sponsor in capsule form for oral administration. All doses (0, 10, 25, 50 and 100 mg) were provided as identical presentations. Each patient was provided with 2 containers of 28-capsules each at the start of treatment and took one capsule from each container every day for 28-days. Placebo contained the same excipients as active medication, but without (R)-6-(2-(ethyl(4-(2-(ethylamino)ethyl)benzyl)amino)-4-methoxyphenyl)-5,6,7,8-tetrahydronaphthalen-2-ol dihydrochloride. The patients were instructed to take the capsules orally in the fasted state (morning).
Changes in the efficacy endpoints of frequency, severity, and composite score of hot flashes over time; associated hot flash symptoms (palpitations, insomnia, joint aches, and headaches), PD markers of estrogen effect (FSH, LH, and lipid profile), drug levels, and MRS were to be summarized using descriptive statistics. Frequency, severity, and composite score of hot flashes over time were to be analyzed using repeated measures analysis of variance (ANOVA) with factors for treatment (treatment groups), time (study day) and their interaction. A linear trend test for treatment groups (placebo, and 10, 25, 50, 100 mg doses of drug) and for study day as well as any potential interaction between the two was to be included as part of the analyses by including both dose and time as continuous variables in the ANOVA model. Pair-wise comparisons of change from baseline were to be tested between the placebo group and each drug dose group for each timepoint; the mean difference together with a 95% confidence interval of the difference was to be presented for placebo compared with each active treatment group. Nominal p-values at Week 4 were to be presented. In addition, graphical presentations of mean (±standard error of the mean) and percent group responses over time together with repeated measures ANOVA to assess potential trend in responses over time in each dose group were to be presented. For the associated vasomotor symptoms (palpitations, insomnia, joint aches, and headaches collected in the patient diaries), patient and event frequencies were to be summarized by treatment week and treatment group.
Hot flashes were also scored according to their severity with a mild hot flash scored a “1”, a moderate hot flash scored a “2” and a severe hot flash scored a “3”. […]

For CCNCCc1ccc(CN(CC)c2cc(OC)ccc2[C@@H]2CCc3cc(O)ccc3C2)cc1 [drug, (R)-6-(2-(ethyl(4-(2-(ethylamino)ethyl)benzyl)amino)-4-methoxyphenyl)-5,6,7,8-tetrahydronaphthalen-2-ol dihydrochloride], the “Weekly Mean Frequency of Moderate and Severe Hot Flash Numbers” value (25 mg group, Baseline, ITT) was 65.9 (44.30), the “Mean Severity Scores by Week” value (25 mg group, Baseline, ITT, mild=1, moderate=2, severe=3) was 2.26 (0.348) and the “Composite Scores by Week” value (25 mg group, Baseline, ITT, frequency x severity) was 165.47. For the same molecule, the “Composite Scores by Week” value (50 mg daily PO, Week 1, ITT) was 104.35, the “Mean Severity Scores by Week” value (50 mg daily PO, Week 1, ITT) was 1.92 (0.402) and the “Weekly Mean Frequency of Mild, Moderate and Severe Hot Flash Numbers” value (“Weekly Mean Frequency of Mild” for short) (50 mg daily PO, Week 1, ITT) was 54.0 (27.15). The “Weekly Mean Frequency of Moderate and Severe Hot Flash Numbers” value (50 mg daily PO, Week 1, ITT) was 41.7 (23.79), the “Composite Scores by Week” value (50 mg daily PO, Week 2, ITT) was 87.78 and the “Mean Severity Scores by Week” value (50 mg daily PO, Week 2, ITT) was 1.88 (0.535). For the same molecule, the “Weekly Mean Frequency of Mild” value (50 mg daily PO, Week 2, ITT) was 45.8 (25.16), the “Weekly Mean Frequency of Moderate and Severe Hot Flash Numbers” value (50 mg daily PO, Week 2, ITT) was 32.8 (25.52) and the “Composite Scores by Week” value (50 mg daily PO, Week 3, ITT) was 77.67. The “Mean Severity Scores by Week” value (50 mg daily PO, Week 3, ITT) was 1.86 (0.544), the “Weekly Mean Frequency of Mild” value (50 mg daily PO, Week 3, ITT) was 40.5 (22.37) and the “Weekly Mean Frequency of Moderate and Severe Hot Flash Numbers” value (50 mg daily PO, Week 3, ITT) was 29.6 (25.09). For the same molecule, the “Composite Scores by Week” value (50 mg daily PO, Week 4, ITT) was 75.06, the “Mean Severity Scores by Week” value (50 mg daily PO, Week 4, ITT) was 1.83 (0.568) and the “Weekly Mean Frequency of Mild” value (50 mg daily PO, Week 4, ITT) was 37.9 (23.45). The “Weekly Mean Frequency of Moderate and Severe Hot Flash Numbers” value (50 mg daily PO, Week 4, ITT) was 29.4 (26.53), the “Weekly Mean Frequency of Mild” value (50 mg group, Baseline, ITT) was 76.0 (36.96) and the “Weekly Mean Frequency of Moderate and Severe Hot Flash Numbers” value (50 mg group, Baseline, ITT) was 71.9 (36.92). For the same molecule, the “Mean Severity Scores by Week” value (50 mg group, Baseline, ITT, mild=1, moderate=2, severe=3) was 2.14 (0.313), the “Composite Scores by Week” value (50 mg group, Baseline, ITT, frequency x severity) was 162.19 and the “Composite Scores by Week” value (100 mg daily PO, Week 1, ITT) was 104.35. For the same molecule, the “Mean Severity Scores by Week” value (100 mg daily PO, Week 1, ITT) was 2.04 (0.334), the “Weekly Mean Frequency of Mild” value (100 mg daily PO, Week 1, ITT) was 48.6 (23.32) and the “Weekly Mean Frequency of Moderate and Severe Hot Flash Numbers” value (100 mg daily PO, Week 1, ITT) was 41.9 (24.23). The “Composite Scores by Week” value (100 mg daily PO, Week 2, ITT) was 87.18, the “Mean Severity Scores by Week” value (100 mg daily PO, Week 2, ITT) was 2.01 (0.406) and the “Weekly Mean Frequency of Mild” value (100 mg daily PO, Week 2, ITT) was 41.6 (27.37). For the same molecule, the “Weekly Mean Frequency of Moderate and Severe Hot Flash Numbers” value (100 mg daily PO, Week 2, ITT) was 35.6 (28.06), the “Composite Scores by Week” value (100 mg daily PO, Week 3, ITT) was 59.75 and the “Mean Severity Scores by Week” value (100 mg daily PO, Week 3, ITT) was 1.88 (0.473). The “Weekly Mean Frequency of Mild” value (100 mg daily PO, Week 3, ITT) was 29.4 (23.91), the “Weekly Mean Frequency of Moderate and Severe Hot Flash Numbers” value (100 mg daily PO, Week 3, ITT) was 24.5 (24.06) and the “Composite Scores by Week” value (100 mg daily PO, Week 4, ITT) was 43.67. The “Mean Severity Scores by Week” value (100 mg daily PO, Week 4, ITT) was 1.89 (0.484), the “Weekly Mean Frequency of Mild” value (100 mg daily PO, Week 4, ITT) was 23.1 (19.45) and the “Weekly Mean Frequency of Moderate and Severe Hot Flash Numbers” value (100 mg daily PO, Week 4, ITT) was 18.6 (19.16). The “Weekly Mean Frequency of Mild” value (100 mg group, Baseline, ITT) was 63.6 (13.23), the “Weekly Mean Frequency of Moderate and Severe Hot Flash Numbers” value (100 mg group, Baseline, ITT) was 58.5 (12.67) and the “Mean Severity Scores by Week” value (100 mg group, Baseline, ITT, mild=1, moderate=2, severe=3) was 2.21 (0.330). For the same molecule, the “Composite Scores by Week” value (100 mg group, Baseline, ITT, frequency x severity) was 140.35.
